Where a name gives a salt, the structure may show the parent alone.
Key:
IDO1 [1] = biological target: T1, IDO1 (Homo sapiens, UniProt P14902); assay: Recombinant human IDO1 enzyme inhibition assay; type: biochemical; settings: for ligand efficiency: LE=1.37*pKi/number of heavy atoms; for mode of inhibition: Lineweaver-Burk graphical analysis
human serum protein = assay: Impact of human serum protein binding on inhibitory activity; type: in vitro ADME
IDO1 [2] = biological target: T1, IDO1; assay: UV-Vis absorption spectroscopy of inhibitor binding to IDO1; settings: 500 μM inhibitor; for effect of inhibitor on CO-bound ferrous IDO1: CO as surrogate for O2; for Soret band of deoxy ferrous IDO1 on inhibitor binding: without inhibitor 427 nm
catalase = assay: Catalase inhibition; type: biochemical; settings: catalase IC50 relative to IDO1 IC50
Chain of catalase (P00432 2-527): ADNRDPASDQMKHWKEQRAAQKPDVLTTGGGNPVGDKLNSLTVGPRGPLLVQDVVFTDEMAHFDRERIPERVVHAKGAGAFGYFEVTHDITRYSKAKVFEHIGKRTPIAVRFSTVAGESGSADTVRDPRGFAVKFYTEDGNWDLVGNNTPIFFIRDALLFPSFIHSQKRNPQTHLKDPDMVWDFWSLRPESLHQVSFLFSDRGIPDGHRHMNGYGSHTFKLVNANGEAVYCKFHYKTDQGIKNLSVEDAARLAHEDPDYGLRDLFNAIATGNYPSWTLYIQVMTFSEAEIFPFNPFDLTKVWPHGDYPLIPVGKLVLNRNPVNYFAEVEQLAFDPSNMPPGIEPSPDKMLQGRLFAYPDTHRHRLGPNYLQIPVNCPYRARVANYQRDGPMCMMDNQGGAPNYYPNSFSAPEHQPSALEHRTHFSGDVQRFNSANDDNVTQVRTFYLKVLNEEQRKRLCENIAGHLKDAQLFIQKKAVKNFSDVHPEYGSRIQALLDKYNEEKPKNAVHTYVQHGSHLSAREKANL

HeLa cells = assay: Cell viability; type: cell-based, human; settings: up to concentrations of 100 μM

T1 sequence (P14902 whole entry): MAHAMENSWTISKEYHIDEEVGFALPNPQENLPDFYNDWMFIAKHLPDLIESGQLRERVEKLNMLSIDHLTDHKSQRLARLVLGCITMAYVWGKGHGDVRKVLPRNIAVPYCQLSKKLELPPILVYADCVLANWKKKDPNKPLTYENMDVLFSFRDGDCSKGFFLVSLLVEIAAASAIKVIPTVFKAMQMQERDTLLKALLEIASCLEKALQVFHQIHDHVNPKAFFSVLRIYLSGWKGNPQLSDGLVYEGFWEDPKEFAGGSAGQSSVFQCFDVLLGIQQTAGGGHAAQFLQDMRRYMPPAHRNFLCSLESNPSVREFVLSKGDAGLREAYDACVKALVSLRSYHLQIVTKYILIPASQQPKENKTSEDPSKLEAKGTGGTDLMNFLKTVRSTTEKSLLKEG

| Structure (SMILES) | IC50 (IDO1 [1]) [µM] | reversibility of IDO1 inhibition (IDO1 [1]) | ligand efficiency (IDO1 [1]) | mode of inhibition (IDO1 [1]) | impact of human serum protein binding on inhibitory activity (human serum protein) | effect of inhibitor on CO-bound ferrous IDO1 (IDO1 [2]) | Soret band of deoxy ferrous IDO1 on inhibitor binding (IDO1 [2]) | Catalase Fold (catalase) [fold] | cell viability (cytotoxicity) (HeLa cells) |
| --- | --- | --- | --- | --- | --- | --- | --- | --- | --- |
| NOCCc1ccccc1 [Compound 5, O-Phenethylhydroxylamine hydrochloride] | 20 | – | – | – | – | – | – | – | – |
| Cl.NOCc1ccc(I)cc1 [Compound 8, 4-(Iodobenzyl)hydroxylamine hydrochloride] | – | reversible | 0.93 | uncompetitive | substantial reduction in inhibitory activity | inhibitor binding partially prevents CO binding to the heme iron | 419–421 nm | > 300 | good cell viability |
| Cl.NOCc1cccc(Cl)c1 [Compound 9, O-(3-Chlorobenzyl)hydroxylamine hydrochloride] | – | reversible | 0.93 | uncompetitive | relatively unaffected | – | – | > 320 | good cell viability |
| COc1ccc(OC)c(CON)c1.Cl [Compound 40, O-(2,5-Dimethoxybenzyl)hydroxylamine hydrochloride] | – | – | – | – | – | inhibitor binding partially prevents CO binding to the heme iron | 419–421 nm | – | – |
| NOCc1ccccc1 [Lead, O-benzylhydroxylamine] | – | – | – | – | – | inhibitor binding prevents CO binding to the heme iron | 419–421 nm | – | – |
| NNc1ccccc1 [Ph-NH-NH2, phenylhydrazine] | – | did not see any signs of irreversible inhibition | – | – | – | – | – | – | – |
